Structures are written as SMILES. “And” between values parts separate entries of the source, which are not always exact repeats. Equal values may be shown once.

The test system of data set [1] is Plasmodium falciparum. As to the kind of experiment: NOVARTIS: Inhibition of Plasmodium falciparum 3D7 (drug-susceptible) proliferation in erythrocyte-based infection assay. Type of data set: functional, organism-based.
For data set [2], the system named is Plasmodium falciparum. As to the kind of experiment: NOVARTIS: Inhibition of Plasmodium falciparum W2 (drug-resistant) proliferation in erythrocyte-based infection assay. It counts as functional, organism-based. Conditions: read-out: EC50.
The nature of data set [3]: NOVARTIS: Cytotoxicity against human hepatocellular carcinoma cell line (Huh7). It counts as toxicity, cell-based, Huh-7. Conditions: Huh7 cells (hepatocellular carcinoma cell line).

On to `CCN1C(=Cc2sc3ccccc3[n+]2C)C=Cc2ccc(C)cc21`, for which the figures for the EC50 in data set [1] and in data set [2] were 1650 nM and above 1420 nM, respectively. In data set [3], this molecule had a 50% cytotoxic concentration (CC50) above 11800 nM.
Taken in the same sequence, the figures for `CCCC[n+]1c(C=C2C=Cc3ccccc3N2CC)sc2ccccc21` were 724 nM, 694 nM and above 10000 nM.
`CCOC(=O)c1c[nH]c2c(ccc3ccccc32)c1=O` showed a CC50 in data set [3] above 100000 nM.
Molecule `CC(C)CN1C(=O)c2ccccc2C(C(=O)Nc2cccc(Cl)c2)C1c1cccs1` (configuration not stated) had a CC50 in data set [3] of 93600 nM.
Regarding `CC1=CC(=O)OC[C@]23CCC(C)=C[C@H]2O[C@@H]2C[C@@H](OC(=O)C=CC=CC(=O)OCC1)[C@@]3(C)[C@]21CO1`, the EC50 worked out at 3.91 nM in data set [1] and 9.18 nM in data set [2]. The molecule further returned a cytotoxic concentration (CC50) in data set [3] of 206 nM.
`CCN1C(=Cc2sc3ccc(Cl)cc3[n+]2CC)C=Cc2cc(OC)ccc21`: the figures for the EC50 in data set [1] and in data set [2] were 473 nM and 602 nM, respectively. The CC50 in data set [3] was above 10000 nM.
As for `CC(C)CN1C(=O)c2ccccc2C(C(=O)Nc2ccccc2F)C1c1cccs1` (configuration not stated), the CC50 in data set [3] is above 100000 nM.
In the case of `CN(/C=C/C1=[N+](C)c2ccc(Cl)cc2C1(C)C)c1ccccc1`, the EC50 in data set [1] is 1360 nM and 455 nM; in data set [2] it was 900 nM and 2040 nM. Further, in data set [3], the CC50 is above 92800 nM.
As for `CC(C)CN1C(=O)c2ccccc2C(C(=O)Nc2cccc(C(F)(F)F)c2)C1c1cccs1` (configuration not stated), the CC50 in data set [3] is above 100000 nM.
As for `CC1=CC(=O)OC[C@]23C[C@H](O)C(C)=C[C@H]2O[C@@H]2C[C@@H](OC(=O)C=CC=CC(=O)OCC1)[C@@]3(C)[C@]21CO1`, the EC50 in data set [1] was found to be 2.44 nM; in data set [2] it was 1.77 nM. Also, the CC50 in data set [3] was found to be 83.7 nM.
For `C=CC12CCN(CC1)C(C(O)c1ccnc3ccc(OC)cc13)C2` (configuration not stated), in data set [2] (Plasmodium falciparum, W2), the EC50 came to 29.3 nM. In data set [3], this molecule displayed a CC50 of 77700 nM.
As for `C=CCN1C=CC(=Cc2sc3ccccc3[n+]2C)c2ccccc21`, the EC50 in data set [1] is 432 nM; in data set [2] (Plasmodium falciparum, W2), 125 nM. In data set [3], this molecule registered a CC50 above 9370 nM.
As for `CC[n+]1ccc(C=Cc2ccc(N(C)C)cc2)cc1`, the values for the EC50 in data set [1] and in data set [2] were 409 nM and above 4460 nM, respectively. This molecule yielded a CC50 in data set [3] above 84900 nM.
`CCOC(=O)C1=C(C)N=c2sc(=Cc3cc(Cl)ccc3O)c(=O)n2C1c1ccc(OC)c(OC)c1` (configuration not stated): the EC50 in data set [2] was 1440 nM and 264 nM. In data set [3], the CC50 is above 100000 nM.
`Cc1cc(Nc2ccc(C)c(F)c2)n2nc(C)nc2n1`: in data set [1] (Plasmodium falciparum, 3D7), the EC50 was found to be 1040 nM. For the same molecule, in data set [3], the CC50 is above 100000 nM.
With `COC(=O)c1ccc(C2C3=C(O)CC(c4ccco4)CC3=Nc3ccccc3N2C(=O)c2ccccc2)cc1` (configuration not stated), the EC50 was 579 nM in data set [1] and 387 nM in data set [1] (Plasmodium falciparum, 3D7). This molecule also gave a CC50 in data set [3] above 100000 nM.
Consider `CC1=C[C@H]2O[C@@H]3C[C@H]4OC(=O)C=CC=C[C@H]([C@@H](C)O)OCC[C@@H](C)[C@H](O)C(=O)OC[C@@]2(CC1)[C@]4(C)[C@@]31CO1`, for which the EC50 in data set [1] and in data set [2] was below 0.572 nM each time. In data set [3], it took 6.04 nM to reach half-maximal cytotoxicity (CC50).
Turning to `CC(C)CN1C(=O)c2ccccc2C(C(=O)Nc2ccccn2)C1c1cccs1` (configuration not stated), the CC50 in data set [3] is above 100000 nM.
As for `c1ccc(CSc2nnc3c(n2)[nH]c2ccccc23)cc1`, the EC50 in data set [1] was above 1060 nM; in data set [1] (Plasmodium falciparum, 3D7) it was 1300 nM; in data set [2] (Plasmodium falciparum, W2), 1320 nM; in data set [2] it was above 748 nM. The molecule further showed a CC50 in data set [3] above 10000 nM.
For `CN(C)c1ccc(C=C2SC(=Nc3ccccc3)NC2=O)cc1`, in data set [1] (Plasmodium falciparum, 3D7), the EC50 was found to be 27.1 nM. The CC50 in data set [3] was above 74400 nM.
With `CC[n+]1cc(C)ccc1C=Cc1ccc(N(C)C)cc1`, the EC50 in data set [1] worked out at 195 nM; in data set [2], 232 nM. Further, the CC50 in data set [3] worked out at 15200 nM.
For the molecule `Cn1cc(/C=C/c2cc[n+](C)cc2)c2ccccc21`, the EC50 was 92.8 nM in data set [1] and 314 nM in data set [2] (Plasmodium falciparum, W2). Further, in data set [3], the CC50 was above 8990 nM.
Consider `Cc1cc(/C=C2\SC(=Nc3ccccc3)N(C3CCCCC3)C2=O)c(C)n1-c1ccc(F)cc1`, for which the EC50 in data set [2] (Plasmodium falciparum, W2) is 383 nM; in data set [2], 680 nM. In data set [3], this molecule showed a CC50 above 100000 nM.

These data come from ChEMBL document CHEMBL1156829 (Proc Natl Acad Sci U S A, 2008).
